Measured values as given in patent US20230241014A1, “MEK-INHIBITORS FOR THE TREATMENT OR PREVENTION OF CORONAVIRUS INFECTIONS AND/OR COVID-19 CYTOKINE STORM” (priority 2020, published 2023).

Tested on: VSV pseudotype virus carrying the SARS-CoV-2 Spike protein
Type: cell-based

O=C(NOCC1CC1)c1ccc(F)c(F)c1Nc1ccc(I)cc1Cl [CI-1040, reference compound]
internalization of the VSV pseudotype virus (GFP positive cells): reduction in the internalization
